Measurements taken from patent publication US10227347B2, “Purinyl-N-hydroxyl pyrimidine formamide derivative, preparation methods and uses thereof” (Guizhou Bailing Group Pharmaceutical CO., LTD., priority 2015, dated 2019).
Like-named read-outs stand apart in the source and are kept apart here.

Legend:
[1] = tested on: A2780s cells (ovarian cancer); assay: Cell proliferation inhibition, A2780s (MTT); type: cell-based; settings: Homo sapiens
How it was run: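 Cells seeded at 2000-3000/well; adherent lines dosed after attachment, then 96 h incubation with compound. Viability read by MTT for solid-tumour lines (HCT116, A2780s) and CCK-8 for MV4-11; IC50 from four-parameter logistic fit of inhibition ratio versus concentration.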

[2] = tested on: acetylated histone H3 (Ac-H3) in A2780s cells; assay: Induction of histone H3 acetylation in A2780s cells (cytoblot); type: cell-based; settings: Homo sapiens, 6 h treatment
Method: Specific operation: After the treatment, washing each well once with 50-100 μl of cold TBS buffer [with the composition as 20 mM Tris (trismetyl aminomethane), pH7.5] and fixing it with 100 μL of 4% pre-cooled paraformaldehyde at 4° C. for 1 h; after paraformaldehyde is washed off, adding 50 μL of pre-cooled methyl alcohol in each well and evenly spreading at 4° C. for 5 min; after methyl alcohol is washed off, washing it once with the TBS buffer containing 3% skim milk powder and adding 50 μL of antibody fluid, oscillating it slightly at 4° C. and incubating overnight. For determination of Ac—H3, the antibody fluid is prepared by diluting Ac—H3 antibody and horseradish peroxide coupled secondary antibody to a same system with the TBS buffer containing 3% skim milk powder (Ac—H3 antibody is purchased from Santa Cruz Company and diluted at a ratio of 1:100; horseradish peroxide coupled secondary antibody is purchased from Jackson Company and diluted at a ratio of 1:2000); for determination of acetylated Ac-α-tubulin, the antibody fluid is prepared by diluting Ac-α-tubulin antibody and horseradish peroxide coupled secondary antibody to a same system with the TBS buffer containing 3% skim milk powder (Ac-α-tubulin antibody is purchased from Santa Cruz Company and diluted at a ratio of 1:100; horseradish peroxide coupled secondary antibody is purchased from Jackson Company and diluted at a ratio of 1:2000).
Calculating the value of IC50 as per the formula: Y=background data+(top data−background data)/(1+10^((Log EC50−X)*rate of curve)) Where, Y refers to the activating rate (%) and X refers to the compound concentration.

[3] = tested on: U266 cells (multiple myeloma); assay: Proliferation inhibition, U266 (cck-8); type: cell-based; settings: Homo sapiens, U-266; 96 h incubation
Excerpt: (§1) Calculating the value of IC50 as per the formula: Y=background data+(top data−background data)/(1+10^((Log IC50−X)*rate of curve)). Where, Y refers to the inhibition ratio (%) and X refers to the compound concentration.

[4] = tested on: SUDHL-4 cells (B-cell lymphoma); assay: Proliferation inhibition, SUDHL-4 (cck-8); type: cell-based; settings: Homo sapiens, SU-DHL-4; 96 h incubation
Excerpt: as §1

[5] = tested on: HBL-1 cells (B-cell lymphoma); assay: Proliferation inhibition, HBL-1 (cck-8); type: cell-based; settings: Homo sapiens, HBL1; 96 h incubation
Excerpt: as §1

[6] = tested on: RPMI-8226 cells (multiple myeloma); assay: Proliferation inhibition, RPMI-8226 (cck-8); type: cell-based; settings: Homo sapiens, 96 h incubation
Excerpt: as §1

[7] = biological target: T1, HDAC1 (Homo sapiens, UniProt Q13547); assay: In vitro HDAC1 enzymatic activity inhibition (Lys-Ac-AMC substrate); type: biochemical
T1 construct: purchased BPS Bioscience
How it was run: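 Fluorogenic Lys-Ac-AMC deacetylation with trypsin development in modified Tris buffer pH 7.0; compound preincubated with enzyme 15 min at ambient temperature before substrate addition. Final HDAC1 6 nM, trypsin 0.05 μM, Ac-peptide 8 μM. IC50 from four-parameter fit of % inhibition versus concentration.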

[8] = biological target: T2, HDAC2 (Homo sapiens, UniProt Q92769); assay: HDAC2 enzyme inhibition (Lys-Ac-AMC); type: biochemical; settings: Table 4, graded
T2 construct: purchased BPS Bioscience 50002
Method: (§2) Determining the inhibition capability of HDAC through the substrate method of fluorophore coupled acetylized peptide fragment (Lys-Ac-AMC). HDAC2-11 proteins of subtypes are purchased from BPS Bioscience Company with the Art. […] The reaction buffer system is a modified Tris buffer (pH7.0). The small molecule compounds are prepared and dissolved with 100% DMSO. […] Adding the compound into the reaction wells of the 384 well plate at the designed concentration, then adding 15 μL HDAC enzyme solution into the reaction wells (adding 15 μL blank buffer into the control well 0) for incubation under ambient temperature for 15 min; then adding 10 μL substrate solution to start reaction.
(§3) Analyzing the result data with the software GraphPad Prism and calculating the value of IC50 as per the formula: Y=background data+(top data−background data)/(1+10^((Log IC50−X)*rate of curve)). Where, Y refers to the inhibition ratio (%) and X refers to the compound concentration.

[9] = biological target: T3, HDAC3 (Homo sapiens, UniProt O15379); assay: HDAC3 enzyme inhibition (Lys-Ac-AMC); type: biochemical; settings: Table 4, graded
T3 construct: purchased BPS Bioscience 50003
Method: as §2, §3

[10] = biological target: T4, HDAC11 (Homo sapiens, UniProt Q96DB2); assay: HDAC11 enzyme inhibition (Lys-Ac-AMC); type: biochemical; settings: Table 4, graded
T4 construct: purchased BPS Bioscience 50011
T4 sequence (Q96DB2 1-347): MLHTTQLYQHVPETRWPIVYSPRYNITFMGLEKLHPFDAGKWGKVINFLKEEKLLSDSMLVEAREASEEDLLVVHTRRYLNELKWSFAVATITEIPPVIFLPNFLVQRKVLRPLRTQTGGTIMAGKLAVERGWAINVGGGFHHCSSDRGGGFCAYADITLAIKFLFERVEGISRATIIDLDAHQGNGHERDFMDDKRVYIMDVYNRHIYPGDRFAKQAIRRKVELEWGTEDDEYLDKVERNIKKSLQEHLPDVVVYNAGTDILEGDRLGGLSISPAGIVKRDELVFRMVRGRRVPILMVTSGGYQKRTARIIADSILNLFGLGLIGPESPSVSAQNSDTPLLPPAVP
Method: as §2, §3

[11] = 96 h incubation, read-out: Proliferation IC50, Ovarian cancer A2780s
[12] = Table 1, graded, read-out: HDAC1 IC50
[13] = Table 4, graded, read-out: HDAC1 IC50
[14] = read-out: inhibition value IC50 to the activity of HDAC1

T1 sequence (Q13547 whole entry, species assumed): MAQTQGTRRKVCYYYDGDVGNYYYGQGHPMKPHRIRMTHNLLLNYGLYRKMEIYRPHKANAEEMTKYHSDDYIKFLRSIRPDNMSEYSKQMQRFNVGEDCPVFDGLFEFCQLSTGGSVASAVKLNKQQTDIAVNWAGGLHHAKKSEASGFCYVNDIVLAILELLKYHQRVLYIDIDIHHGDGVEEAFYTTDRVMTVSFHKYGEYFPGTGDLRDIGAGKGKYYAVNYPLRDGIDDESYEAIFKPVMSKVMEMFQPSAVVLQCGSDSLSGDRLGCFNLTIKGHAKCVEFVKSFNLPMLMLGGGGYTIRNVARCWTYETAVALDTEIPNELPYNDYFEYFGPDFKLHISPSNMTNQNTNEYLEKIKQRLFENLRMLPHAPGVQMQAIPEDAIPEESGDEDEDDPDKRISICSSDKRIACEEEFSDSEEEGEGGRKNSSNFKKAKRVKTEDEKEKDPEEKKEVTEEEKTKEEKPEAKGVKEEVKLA
T3 sequence (O15379 whole entry, species assumed): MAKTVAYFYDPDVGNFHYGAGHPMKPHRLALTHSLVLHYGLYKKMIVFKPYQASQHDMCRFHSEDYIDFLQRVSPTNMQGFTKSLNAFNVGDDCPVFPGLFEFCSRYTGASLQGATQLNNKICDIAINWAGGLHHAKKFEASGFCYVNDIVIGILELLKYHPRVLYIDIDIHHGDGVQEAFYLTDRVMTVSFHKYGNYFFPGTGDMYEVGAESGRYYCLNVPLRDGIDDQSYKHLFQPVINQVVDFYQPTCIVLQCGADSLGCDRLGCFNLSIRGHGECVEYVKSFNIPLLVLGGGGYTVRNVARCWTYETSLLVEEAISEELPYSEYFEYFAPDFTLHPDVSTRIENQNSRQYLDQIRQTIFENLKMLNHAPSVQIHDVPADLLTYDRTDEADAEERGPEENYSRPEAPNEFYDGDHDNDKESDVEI
T3 sequence (Q9Y618 395-489 partner limits assumed, species assumed): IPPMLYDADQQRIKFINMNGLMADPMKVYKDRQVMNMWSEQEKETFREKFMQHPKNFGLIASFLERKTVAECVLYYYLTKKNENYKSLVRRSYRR
T2 sequence (Q92769 whole entry, species assumed): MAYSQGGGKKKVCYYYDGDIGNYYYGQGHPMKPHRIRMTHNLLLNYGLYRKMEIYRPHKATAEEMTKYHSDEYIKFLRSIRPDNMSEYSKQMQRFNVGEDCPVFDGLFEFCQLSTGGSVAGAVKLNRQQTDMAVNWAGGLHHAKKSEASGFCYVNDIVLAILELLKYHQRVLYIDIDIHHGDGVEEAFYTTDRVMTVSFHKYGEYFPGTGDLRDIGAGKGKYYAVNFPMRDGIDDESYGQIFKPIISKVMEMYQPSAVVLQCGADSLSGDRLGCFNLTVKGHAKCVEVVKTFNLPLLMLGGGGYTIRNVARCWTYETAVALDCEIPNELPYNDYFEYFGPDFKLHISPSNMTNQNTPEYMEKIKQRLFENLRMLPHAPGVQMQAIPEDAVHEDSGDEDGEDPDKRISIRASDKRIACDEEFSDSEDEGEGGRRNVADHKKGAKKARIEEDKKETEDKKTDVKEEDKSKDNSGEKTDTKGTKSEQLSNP

Compound: Cc1[nH]c2ccccc2c1CCNCc1ccc(/C=C/C(=O)NO)cc1 [LBH589, panobinostat, reference compound]
- IC50 [1, 11]: 0.1 to 10 nM
- EC50 [2]: 100 to 200 nM
- IC50 [3]: 1 to 10 nM
- IC50 [4]: 1 to 10 nM
- IC50 [5]: 1 to 10 nM
- IC50 [6]: 1 to 10 nM

Compound: COc1ccc(-c2nc(N3CCOCC3)c3nc(CN(C)c4ncc(C(=O)NO)cn4)n(C)c3n2)cn1 [CLJ-1, 2-(((2-(6-methoxypyridine-3-yl)-9-methyl-6-morpholine-9H-purine-8-yl))methyl(methyl)amino)-N-hydroxyl pyrimidine-5-formamide]
- IC50 [7, 12]: < 100 nM
- IC50 [7, 13]: 1 to 100 nM
- IC50 [1, 11]: 0.1 to 10 nM
- IC50 [8]: 1 to 100 nM
- EC50 [2]: 100 to 200 nM
- IC50 [3]: 0.1 to 1 nM
- IC50 [4]: 1 to 10 nM
- IC50 [9]: 1 to 100 nM
- IC50 [10]: 1000 to 10000 nM
- IC50 [5]: 1 to 10 nM
- IC50 [6]: 1 to 10 nM

Compound: CN(Cc1nc2c(N3CCOCC3)nc(-c3cnc(N)nc3)nc2n1C)c1ncc(C(=O)NO)cn1 [CLJ-11, 2-(((2-(2-aminopyrimidine-5-yl)-9-methyl-6-morpholine-9H-purine-8-yl))methyl(methyl)amino)-N-hydroxyl pyrimidine-5-formamide]
- IC50 [7, 12]: < 100 nM
- IC50 [7, 13]: 1 to 100 nM
- IC50 [1, 11]: 10 to 100 nM
- IC50 [8]: 1 to 100 nM
- EC50 [2]: 100 to 200 nM
- IC50 [3]: 10 to 100 nM
- IC50 [4]: 10 to 100 nM
- IC50 [9]: 1 to 100 nM
- IC50 [10]: 1000 to 10000 nM
- IC50 [5]: 10 to 100 nM
- IC50 [6]: 10 to 100 nM

Compound: CN(Cc1nc2c(N3CCOCC3)nc(-c3ccc(N)cc3)nc2n1C)c1ncc(C(=O)NO)cn1 [CLJ-44]
- IC50 [7, 12]: < 1 nM
- IC50 [7, 13]: < 1 nM
- IC50 [7, 14]: < 1 nM
- IC50 [1, 11]: 0.1 to 10 nM
- IC50 [8]: 1 to 100 nM
- EC50 [2]: 100 to 200 nM
- IC50 [3]: 1 to 10 nM
- IC50 [4]: 1 to 10 nM
- IC50 [9]: 1 to 100 nM
- IC50 [10]: 1000 to 10000 nM
- IC50 [5]: 1 to 10 nM
- IC50 [6]: 0.1 to 1 nM

Compound: COc1ccc(-c2nc(N3CCOCC3)c3nc(CN(C)c4ncc(C(=O)NO)cn4)n(C)c3n2)cc1 [CLJ-29, 2-(((2-(4-methoxyphenyl)-9-methyl-6-morpholine-9H-purine-8-yl))methyl(methyl)amino)-N-hydroxyl pyrimidine-5-formamide]
- IC50 [7, 12]: < 1 nM
- IC50 [7, 13]: < 1 nM
- IC50 [7, 14]: < 1 nM
- IC50 [1, 11]: 0.1 to 10 nM
- IC50 ([1]; read-out: IC50 to proliferation of A2780s cells): 0.1 to 10 nM
- IC50 [8]: 1 to 100 nM
- EC50 [2]: < 100 nM
- IC50 [3]: 0.1 to 1 nM
- IC50 [4]: 0.1 to 1 nM
- IC50 [9]: 1 to 100 nM
- IC50 [10]: 1000 to 10000 nM
- IC50 [5]: 1 to 10 nM
- IC50 [6]: 0.1 to 1 nM
